Measurements from paper PMC9276943 (Molecular Plant Pathology, 2022).

Target: T1, truncated CsrD, EAL domain only (E. amylovora Ea1189) (Erwinia amylovora, UniProt A0ABX7MI01)
T1 sequence (A0ABX7MI01 403-633): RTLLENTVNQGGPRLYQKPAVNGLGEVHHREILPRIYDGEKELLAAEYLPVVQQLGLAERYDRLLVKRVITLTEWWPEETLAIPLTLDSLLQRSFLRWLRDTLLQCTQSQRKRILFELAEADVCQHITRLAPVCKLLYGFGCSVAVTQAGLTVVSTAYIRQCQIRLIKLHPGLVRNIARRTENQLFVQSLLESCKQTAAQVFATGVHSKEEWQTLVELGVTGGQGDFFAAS
Assay: streptavidin pull-down with anti-His immunoblot
Type: binding
Settings: labelled compound (biotinylated c-di-GMP, 100 µM); 1.7 µM protein

Nc1nc2c(ncn2[C@@H]2O[C@@H]3COP(=O)(O)O[C@H]4[C@@H](O)[C@H](n5cnc6c(=O)[nH]c(N)nc65)O[C@@H]4COP(=O)(O)O[C@H]3[C@H]2O)c(=O)[nH]1 [c-di-GMP]
streptavidin pull-down with anti-His immunoblot: truncated version of CsrD that consisted of only the WT EAL domain exhibited binding
